Test results published in patent US20100298141A1, “SUBSTITUTED PYRIDINE N-OXIDE HERBICIDES” (E. I. DU PONT DE NEMOURS AND COMPANY, priority 2007, published 2010).

Key:
wild oat = assay: Test C pre-/postemergence test; type: in vivo, Avena fatua
Method in brief: (§1)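 Test chemicals were formulated with surfactant in a non-phytotoxic solvent and sprayed both on freshly planted seeds (preemergence) and on 1- to 4-leaf plants of 2–18 cm (postemergence). Flooded-paddy pots received compound directly into 3 cm of standing water, maintained for the test.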

velvetleaf [1] = assay: Test A pre-/postemergence greenhouse test; type: in vivo, Abutilon theophrasti; settings: for Velvetleaf plant response rating: 0 to 100 scale; for Plant response rating, Velvetleaf: 0 to 100 scale where 0 is no effect and 100 is complete control
Method in brief: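 Visual injury ratings, made relative to untreated controls roughly ten days after treatment, cover both preemergence and postemergence application. Compounds in a surfactant-containing non-phytotoxic solvent were sprayed onto the soil surface after sowing and, simultaneously, onto young plants at the one- to two-leaf stage.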

johnsongrass = assay: Test C pre-/postemergence test; type: in vivo, Sorghum halepense; settings: for Plant response rating (0 to 100), Johnsongrass: 250 g ai/ha
Method in brief: as §1

cocklebur = assay: Test C pre-/postemergence test; type: in vivo, Xanthium strumarium; settings: for Plant response rating (0 to 100), Cocklebur: 250 g ai/ha
Method in brief: as §1

green foxtail = assay: Test C pre-/postemergence test; type: in vivo, Setaria viridis; settings: for Plant response rating (0 to 100), Foxtail, Green: 250 g ai/ha
Method in brief: as §1

morningglory = assay: Test C pre-/postemergence test; type: in vivo, Ipomoea coccinea
Method in brief: as §1

corn = assay: Test C pre-/postemergence test; type: in vivo, Zea mays; settings: for Plant response rating (0 to 100), Corn: 250 g ai/ha
Method in brief: as §1

woolly cupgrass = assay: Test C pre-/postemergence test; type: in vivo, Eriochloa villosa; settings: for Plant response rating (0 to 100), Cupgrass, Woolly: 250 g ai/ha
Method in brief: as §1

downy brome = assay: Test C pre-/postemergence test; type: in vivo, Bromus tectorum; settings: for Plant response rating (0 to 100), Bromegrass, Downy: 250 g ai/ha
Method in brief: as §1

soybean = assay: Test C pre-/postemergence test; type: in vivo, Glycine max
Method in brief: as §1

velvetleaf [2] = assay: Test C pre-/postemergence test; type: in vivo, Abutilon theophrasti
Method in brief: as §1

duck salad = assay: Test C flooded paddy test; type: in vivo, Heteranthera limosa; settings: Flood
Method in brief: (§2)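 Greenhouse pots flooded to 3 cm above soil at time of treatment received compound via the water, which stayed at that level.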

blackgrass = assay: Test C pre-/postemergence test; type: in vivo, Alopecurus myosuroides; settings: for Plant response rating (0 to 100), Blackgrass: 250 g ai/ha
Method in brief: as §1

giant foxtail = assay: Test C pre-/postemergence test; type: in vivo, Setaria faberii; settings: for Plant response rating (0 to 100), Foxtail, Giant: 250 g ai/ha
Method in brief: as §1

Italian ryegrass = assay: Test C pre-/postemergence test; type: in vivo, Lolium multiflorum
Method in brief: as §1

catchweed bedstraw = assay: Test C pre-/postemergence test; type: in vivo, Galium aparine
Method in brief: as §1

barnyardgrass = assay: Test C flooded paddy test; type: in vivo, Echinochloa crus-galli; settings: Flood
Method in brief: as §2

[3] = 31 g ai/ha, Preemergence, scale 0 to 100
[4] = 62 g ai/ha, preemergence, scale 0 (no effect) to 100 (complete control)
[5] = preemergence, 125 g ai/ha, scale 0 (no effect) to 100 (complete control)
[6] = Postemergence, 125 g ai/ha, 0 is no effect, 100 is complete control
[7] = Postemergence, 500 g ai/ha, 0 is no effect, 100 is complete control
[8] = Preemergence, 125 g ai/ha, 0 no effect, 100 complete control
[9] = 31 g ai/ha, scale 0 to 100 (0 no effect, 100 complete control)
[10] = 62 g ai/ha, scale 0 to 100, 0 no effect, 100 complete control, 13 to 15 days
[11] = 125 g ai/ha, scale 0 to 100, 0 no effect, 100 complete control, 13 to 15 days
[12] = 250 g ai/ha, scale 0 to 100 (0 no effect, 100 complete control)
[13] = 62 g ai/ha, Preemergence, scale 0 to 100
[14] = Preemergence, 31 g ai/ha, scale 0 to 100 (0 no effect, 100 complete control)

Which results are given for Cn1nc(C(F)(F)F)c(C[S+]([O-])c2cccc[n+]2[O-])c1Cl (stereo not shown) [Compound 8]?
Oat, Wild plant response rating (wild oat; [3]): 0; Oat, Wild plant response rating (wild oat; [4]): 20; Plant response rating (0 to 100), Oat, Wild (wild oat; Preemergence, 250 g ai/ha): 60; Oat, Wild plant response rating (wild oat; [5]): 40; Velvetleaf plant response rating (velvetleaf [1]; [6]): 40; Velvetleaf plant response rating (velvetleaf [1]; [7]): 70; Velvetleaf plant response rating (velvetleaf [1]; [8]): 70; Plant response rating, Velvetleaf (velvetleaf [1]; Preemergence, 500 g ai/ha): 80; Johnsongrass plant response rating (johnsongrass; [3]): 80; Johnsongrass plant response rating (johnsongrass; [4]): 85; Plant response rating (0 to 100), Johnsongrass (johnsongrass; Preemergence): 100; Johnsongrass plant response rating (johnsongrass; [5]): 85; Cocklebur plant response rating (cocklebur; [3]): 0; Cocklebur plant response rating (cocklebur; [4]): 0; Plant response rating (0 to 100), Cocklebur (cocklebur; Preemergence): 5; Cocklebur plant response rating (cocklebur; [5]): 0; Foxtail, Green plant response rating (green foxtail; [3]): 100; Foxtail, Green plant response rating (green foxtail; [4]): 100; Plant response rating (0 to 100), Foxtail, Green (green foxtail; Preemergence): 100; Foxtail, Green plant response rating (green foxtail; [5]): 100; Morningglory plant response rating (morningglory; [3]): 5; Morningglory plant response rating (morningglory; [4]): 90; Plant response rating (0 to 100), Morningglory (morningglory; Preemergence, 250 g ai/ha): 100; Morningglory plant response rating (morningglory; [5]): 100; Corn plant response rating (corn; [3]): 60; Corn plant response rating (corn; [4]): 80; Plant response rating (0 to 100), Corn (corn; Preemergence): 98; Corn plant response rating (corn; [5]): 95; Cupgrass, Woolly plant response rating (woolly cupgrass; [3]): 70; Cupgrass, Woolly plant response rating (woolly cupgrass; [4]): 98; Plant response rating (0 to 100), Cupgrass, Woolly (woolly cupgrass; Preemergence): 100; Cupgrass, Woolly plant response rating (woolly cupgrass; [5]): 100; Bromegrass, Downy plant response rating (downy brome; [3]): 0; Bromegrass, Downy plant response rating (downy brome; [4]): 0; Plant response rating (0 to 100), Bromegrass, Downy (downy brome; Preemergence): 85; Bromegrass, Downy plant response rating (downy brome; [5]): 80; Soybean plant response rating (soybean; [3]): 0; Soybean plant response rating (soybean; [4]): 0; Plant response rating (0 to 100), Soybean (soybean; Preemergence, 250 g ai/ha): 90; Soybean plant response rating (soybean; [5]): 80; Velvetleaf plant response rating (velvetleaf [2]; [4]): 45; Plant response rating (0 to 100), Velvetleaf (velvetleaf [2]; Preemergence, 250 g ai/ha): 100; Velvetleaf plant response rating (velvetleaf [2]; [5]): 98; Plant response rating, Ducksalad (duck salad; [9]): 0; Plant response rating, Ducksalad (duck salad; [10]): 0; Plant response rating, Ducksalad (duck salad; [11]): 50; Plant response rating, Ducksalad (duck salad; [12]): 90; Blackgrass plant response rating (blackgrass; [3]): 0; Blackgrass plant response rating (blackgrass; [4]): 0; Plant response rating (0 to 100), Blackgrass (blackgrass; Preemergence): 100; Blackgrass plant response rating (blackgrass; [5]): 100; Foxtail, Giant plant response rating (giant foxtail; [3]): 85; Foxtail, Giant plant response rating (giant foxtail; [4]): 98; Plant response rating (0 to 100), Foxtail, Giant (giant foxtail; Preemergence): 100; Foxtail, Giant plant response rating (giant foxtail; [5]): 100; Ryegrass, Italian plant response rating (Italian ryegrass; [3]): 0; Ryegrass, Italian plant response rating (Italian ryegrass; [4]): 50; Plant response rating (0 to 100), Ryegrass, Italian (Italian ryegrass; Preemergence, 250 g ai/ha): 95; Ryegrass, Italian plant response rating (Italian ryegrass; [5]): 70; Galium plant response rating (catchweed bedstraw; [3]): 0; Galium plant response rating (catchweed bedstraw; [4]): 100; Galium plant response rating (catchweed bedstraw; [5]): 100; Plant response rating, Barnyardgrass (barnyardgrass; [9]): 0; Plant response rating, Barnyardgrass (barnyardgrass; [10]): 0; Plant response rating, Barnyardgrass (barnyardgrass; [11]): 40; Plant response rating, Barnyardgrass (barnyardgrass; [12]): 85

With Cn1nc(C(F)(F)F)c(C[S+]([O-])c2cccc[n+]2[O-])c1OCC(F)(F)F (racemic) [Compound 28] as the molecule, how does the “Oat, Wild plant response rating” value (wild oat; [13]) read?
The value was 75.

And the “Plant response rating, Oat, Wild” value (wild oat; [14])?
Its value is 70.

And the “Velvetleaf plant response rating” value (velvetleaf [1]; [6])?
The value was 70.

What about the “Velvetleaf plant response rating” value (velvetleaf [1]; [7]) of the same molecule?
Its value is 80.

What about the “Velvetleaf plant response rating” value (velvetleaf [1]; [8]) of the same molecule?
Its value is 80.

And the “Plant response rating, Velvetleaf” value (velvetleaf [1]; Preemergence, 500 g ai/ha)?
Its value is 100.

What about the “Johnsongrass plant response rating” value (johnsongrass; [13]) of the same molecule?
Its value is 100.

And the “Plant response rating, Johnsongrass” value (johnsongrass; [14])?
Its value is 85.

What about the “Plant response rating (0 to 100), Johnsongrass” value (johnsongrass; Preemergence) of the same molecule?
The value was 100.

And the “Cocklebur plant response rating” value (cocklebur; [13])?
Its value is 10.

And the “Plant response rating, Cocklebur” value (cocklebur; [14])?
Its value is 0.

And the “Plant response rating (0 to 100), Cocklebur” value (cocklebur; Preemergence)?
Its value is 65.

And the “Cocklebur plant response rating” value (cocklebur; [5])?
Its value is 50.

What about the “Foxtail, Green plant response rating” value (green foxtail; [13]) of the same molecule?
The value was 100.

And the “Plant response rating, Foxtail, Green” value (green foxtail; [14])?
The value was 100.

What about the “Plant response rating (0 to 100), Foxtail, Green” value (green foxtail; Preemergence) of the same molecule?
The value was 100.

And the “Morningglory plant response rating” value (morningglory; [13])?
Its value is 100.

And the “Plant response rating, Morningglory” value (morningglory; [14])?
The value was 40.

What about the “Corn plant response rating” value (corn; [13]) of the same molecule?
Its value is 85.

And the “Plant response rating, Corn” value (corn; [14])?
Its value is 30.

What about the “Plant response rating (0 to 100), Corn” value (corn; Preemergence) of the same molecule?
The value was 100.

What about the “Corn plant response rating” value (corn; [5]) of the same molecule?
Its value is 100.

And the “Cupgrass, Woolly plant response rating” value (woolly cupgrass; [13])?
Its value is 100.

What about the “Plant response rating, Cupgrass, Woolly” value (woolly cupgrass; [14]) of the same molecule?
Its value is 70.

What about the “Plant response rating (0 to 100), Cupgrass, Woolly” value (woolly cupgrass; Preemergence) of the same molecule?
Its value is 100.

And the “Bromegrass, Downy plant response rating” value (downy brome; [13])?
The value was 40.

And the “Plant response rating, Bromegrass, Downy” value (downy brome; [14])?
The value was 0.

What about the “Plant response rating (0 to 100), Bromegrass, Downy” value (downy brome; Preemergence) of the same molecule?
The value was 100.

And the “Bromegrass, Downy plant response rating” value (downy brome; [5])?
The value was 50.

What about the “Soybean plant response rating” value (soybean; [13]) of the same molecule?
The value was 95.

What about the “Velvetleaf plant response rating” value (velvetleaf [2]; [13]) of the same molecule?
Its value is 100.

What about the “Plant response rating, Velvetleaf” value (velvetleaf [2]; [14]) of the same molecule?
The value was 80.

And the “Plant response rating, Ducksalad” value (duck salad; [9])?
The value was 65.

What about the “Plant response rating, Ducksalad” value (duck salad; [10]) of the same molecule?
The value was 80.

What about the “Plant response rating, Ducksalad” value (duck salad; [11]) of the same molecule?
Its value is 95.

And the “Plant response rating, Ducksalad” value (duck salad; [12])?
The value was 95.

What about the “Blackgrass plant response rating” value (blackgrass; [13]) of the same molecule?
Its value is 100.

And the “Plant response rating, Blackgrass” value (blackgrass; [14])?
Its value is 100.

And the “Plant response rating (0 to 100), Blackgrass” value (blackgrass; Preemergence)?
The value was 100.

What about the “Blackgrass plant response rating” value (blackgrass; [5]) of the same molecule?
The value was 100.

What about the “Foxtail, Giant plant response rating” value (giant foxtail; [13]) of the same molecule?
Its value is 100.

What about the “Plant response rating, Foxtail, Giant” value (giant foxtail; [14]) of the same molecule?
Its value is 95.

What about the “Plant response rating (0 to 100), Foxtail, Giant” value (giant foxtail; Preemergence) of the same molecule?
The value was 100.

And the “Ryegrass, Italian plant response rating” value (Italian ryegrass; [13])?
Its value is 85.

What about the “Plant response rating, Ryegrass, Italian” value (Italian ryegrass; [14]) of the same molecule?
The value was 80.

What about the “Galium plant response rating” value (catchweed bedstraw; [13]) of the same molecule?
The value was 100.

And the “Plant response rating, Galium” value (catchweed bedstraw; [14])?
Its value is 100.

And the “Plant response rating (0 to 100), Galium” value (catchweed bedstraw; Preemergence, 250 g ai/ha)?
Its value is 100.

And the “Plant response rating, Barnyardgrass” value (barnyardgrass; [9])?
Its value is 0.

And the “Plant response rating, Barnyardgrass” value (barnyardgrass; [10])?
Its value is 20.

And the “Plant response rating, Barnyardgrass” value (barnyardgrass; [11])?
Its value is 65.

And the “Plant response rating, Barnyardgrass” value (barnyardgrass; [12])?
Its value is 85.
